The results in this text go back to ChEMBL document CHEMBL4732192, “Discovery and optimization of a novel CNS penetrant series of mGlu PAMs based on a 1,4-thiazepane core with in vivo efficacy in a preclinical Parkinsonian model” (Bioorg Med Chem Lett, 2021).

The fraction unbound is free concentration divided by total concentration. Usually EC50 stands for the concentration needed to bring the measured effect to its halfway point. Low readings indicate greater potency, high ones weaker potency. Usually Kp stands for the ratio of the level in a tissue or fluid to that in plasma or blood. Usually IC50 stands for the midpoint of a concentration-inhibition curve. For orientation: inhibition in vivo means how much of the control response was suppressed.

The structures appear in SMILES notation. Values after ≈ are worked out from the molar mass of the structure shown.

Series [1] deals with Metabotropic glutamate receptor 4 (Rattus norvegicus) (UniProt P31423). Kind of series: Positive allosteric modulation of rat mGlu4 receptor expressed in HEK293 cells co- expressing GIRK channel by thallium mobilization assay relative to control. The series is classed as cell-based.
Chain of Metabotropic glutamate receptor 4 (Rattus norvegicus) (P31423 whole entry): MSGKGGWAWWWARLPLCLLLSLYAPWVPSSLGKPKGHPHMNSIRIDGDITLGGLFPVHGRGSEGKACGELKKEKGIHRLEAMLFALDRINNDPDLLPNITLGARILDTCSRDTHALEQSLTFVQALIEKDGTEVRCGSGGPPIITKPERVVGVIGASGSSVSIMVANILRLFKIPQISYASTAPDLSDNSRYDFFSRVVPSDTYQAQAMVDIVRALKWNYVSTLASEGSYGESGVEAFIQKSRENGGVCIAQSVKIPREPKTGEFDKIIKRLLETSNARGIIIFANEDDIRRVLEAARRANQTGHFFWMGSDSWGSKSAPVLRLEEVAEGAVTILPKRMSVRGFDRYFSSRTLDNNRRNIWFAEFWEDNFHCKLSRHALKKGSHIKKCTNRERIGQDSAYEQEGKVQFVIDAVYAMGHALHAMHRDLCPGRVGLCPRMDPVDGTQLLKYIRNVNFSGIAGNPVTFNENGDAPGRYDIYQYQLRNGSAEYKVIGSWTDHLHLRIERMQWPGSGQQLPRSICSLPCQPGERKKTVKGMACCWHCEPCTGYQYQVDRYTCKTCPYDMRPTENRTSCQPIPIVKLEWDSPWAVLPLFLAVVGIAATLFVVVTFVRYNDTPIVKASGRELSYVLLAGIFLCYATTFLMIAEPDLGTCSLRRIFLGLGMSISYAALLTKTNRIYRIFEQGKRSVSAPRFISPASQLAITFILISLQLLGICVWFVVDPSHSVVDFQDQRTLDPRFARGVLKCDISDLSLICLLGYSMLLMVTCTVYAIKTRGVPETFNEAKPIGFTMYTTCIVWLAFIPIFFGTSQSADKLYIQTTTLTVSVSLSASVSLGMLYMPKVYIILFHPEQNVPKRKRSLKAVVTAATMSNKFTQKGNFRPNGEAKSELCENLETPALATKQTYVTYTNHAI
Series [2] is described as follows: Protein binding in rat plasma assessed as unbound fraction. The series is classed as ADME, cell-free.
Series [3] in a line: Protein binding in rat brain assessed as unbound fraction. The series is classed as ADME, tissue-based.
The nature of series [4]: Protein binding in human plasma assessed as unbound fraction. Type of series: ADME, cell-free.
Series [5] deals with Metabotropic glutamate receptor 4 (Rattus norvegicus, UniProt P31423). Description: Positive allosteric modulation of rat mGlu4 receptor expressed in HEK293 cells co- expressing GIRK channel by thallium mobilization assay. The series is classed as cell-based.
Chain of Metabotropic glutamate receptor 4 (P31423 whole entry): as above
Series [6] in a line: Kinetic solubility of compound. The series is classed as physicochemical. The note with it: read-out: Kinetic_solubility.
The nature of series [7]: Ratio of drug level in rat brain to plasma assessed as unbound permeability coefficient at 0.2 mg/kg, iv. Type of series: ADME, organism-based. Particulars: read-out: K(p,uu,brain).
The nature of series [8]: Ratio of drug level in rat brain to plasma assessed as permeability coefficient at 0.2 mg/kg, iv. The series is classed as ADME, organism-based.
The test system of series [9] is Rattus norvegicus. Description: Reversal of haloperidol-induced catalepsy in ip dosed Sprague-Dawley rat assessed as reduction in catalepsy measured after 15 mins relative to untreated control. The series is classed as functional. The note with it: 0.25 h.
In series [10] the test system is Rattus norvegicus. Description: Reversal of haloperidol-induced catalepsy in ip dosed Sprague-Dawley rat assessed as latency time for withdrawl measured after 15 mins (reference value: 49.8 sec). The series is classed as functional. Particulars: 0.25 h.
Series [11] concerns the target Metabotropic glutamate receptor 3 (Homo sapiens, UniProt Q14832). Description: Binding affinity to mGlu3 (unknown origin).
The subject of series [12] is Rattus norvegicus. Kind of series: Reversal of haloperidol-induced catalepsy in Sprague-Dawley rat assessed as latency time for withdrawl at 30 mg/kg, ip and measured after 15 mins (reference value: 49.8 sec). Type of series: functional. The note with it: 0.25 h.
For series [13], the target named is Metabotropic glutamate receptor 2 (Homo sapiens, UniProt Q14416). Description: Displacement of [3H]LY341495 from full length human recombinant mGluR2 expressed in Chem-1 cells incubated for 60 mins by radiometric scintillation counting analysis. Type of series: cell-based. In general terms: In a radioligand displacement assay an active substance lowers the binding of a labelled ligand.
Chain of Metabotropic glutamate receptor 2 (Q14416 whole entry): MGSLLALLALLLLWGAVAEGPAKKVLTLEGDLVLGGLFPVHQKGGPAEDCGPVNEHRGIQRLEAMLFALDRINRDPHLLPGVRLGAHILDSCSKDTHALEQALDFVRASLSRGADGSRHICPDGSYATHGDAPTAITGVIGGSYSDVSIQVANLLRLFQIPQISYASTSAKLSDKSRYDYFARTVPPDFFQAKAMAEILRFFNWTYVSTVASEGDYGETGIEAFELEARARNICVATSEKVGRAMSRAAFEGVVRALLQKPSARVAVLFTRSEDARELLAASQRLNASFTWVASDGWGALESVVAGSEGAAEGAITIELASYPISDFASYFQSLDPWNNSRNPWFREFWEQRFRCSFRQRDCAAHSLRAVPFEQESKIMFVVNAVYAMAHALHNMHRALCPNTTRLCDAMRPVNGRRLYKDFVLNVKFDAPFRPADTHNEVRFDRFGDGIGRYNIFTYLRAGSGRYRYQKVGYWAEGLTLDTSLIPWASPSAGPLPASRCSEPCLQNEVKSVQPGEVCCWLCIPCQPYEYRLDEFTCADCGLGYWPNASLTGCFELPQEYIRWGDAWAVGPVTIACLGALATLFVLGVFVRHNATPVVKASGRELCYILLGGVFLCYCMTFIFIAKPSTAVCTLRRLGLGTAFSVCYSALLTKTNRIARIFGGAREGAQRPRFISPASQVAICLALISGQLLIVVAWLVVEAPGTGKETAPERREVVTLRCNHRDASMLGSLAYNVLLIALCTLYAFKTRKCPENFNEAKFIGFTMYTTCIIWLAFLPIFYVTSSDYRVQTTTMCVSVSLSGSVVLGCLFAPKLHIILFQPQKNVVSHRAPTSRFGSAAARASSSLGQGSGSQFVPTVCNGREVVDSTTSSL

Series [14] has as its system Rattus norvegicus. Kind of series: Reversal of haloperidol-induced catalepsy in Sprague-Dawley rat assessed as latency time for withdrawl at 10 mg/kg, ip and measured after 15 mins (reference value: 49.8 sec). The series is classed as functional. The note with it: 0.25 h.
The test system of series [15] is Rattus norvegicus. Description: Reversal of haloperidol-induced catalepsy in Sprague-Dawley rat assessed as reduction in catalepsy at 10 mg/kg, ip and measured after 15 mins relative to untreated control. The series is classed as functional. The note with it: 0.25 h.
Series [16] concerns Rattus norvegicus. Kind of series: Reversal of haloperidol-induced catalepsy in Sprague-Dawley rat assessed as reduction in catalepsy at 3 mg/kg, ip and measured after 15 mins relative to untreated control. The series is classed as functional. The note with it: 0.25 h.
The target of series [17] is Metabotropic glutamate receptor 1 (Rattus norvegicus, UniProt P23385). Kind of series: Displacement of [3H]quisqualate from mGluR1 from rat brain incubated for 60 mins by radiometric scintillation counting analysis. Type of series: tissue-based.
Chain of Metabotropic glutamate receptor 1 (P23385 whole entry): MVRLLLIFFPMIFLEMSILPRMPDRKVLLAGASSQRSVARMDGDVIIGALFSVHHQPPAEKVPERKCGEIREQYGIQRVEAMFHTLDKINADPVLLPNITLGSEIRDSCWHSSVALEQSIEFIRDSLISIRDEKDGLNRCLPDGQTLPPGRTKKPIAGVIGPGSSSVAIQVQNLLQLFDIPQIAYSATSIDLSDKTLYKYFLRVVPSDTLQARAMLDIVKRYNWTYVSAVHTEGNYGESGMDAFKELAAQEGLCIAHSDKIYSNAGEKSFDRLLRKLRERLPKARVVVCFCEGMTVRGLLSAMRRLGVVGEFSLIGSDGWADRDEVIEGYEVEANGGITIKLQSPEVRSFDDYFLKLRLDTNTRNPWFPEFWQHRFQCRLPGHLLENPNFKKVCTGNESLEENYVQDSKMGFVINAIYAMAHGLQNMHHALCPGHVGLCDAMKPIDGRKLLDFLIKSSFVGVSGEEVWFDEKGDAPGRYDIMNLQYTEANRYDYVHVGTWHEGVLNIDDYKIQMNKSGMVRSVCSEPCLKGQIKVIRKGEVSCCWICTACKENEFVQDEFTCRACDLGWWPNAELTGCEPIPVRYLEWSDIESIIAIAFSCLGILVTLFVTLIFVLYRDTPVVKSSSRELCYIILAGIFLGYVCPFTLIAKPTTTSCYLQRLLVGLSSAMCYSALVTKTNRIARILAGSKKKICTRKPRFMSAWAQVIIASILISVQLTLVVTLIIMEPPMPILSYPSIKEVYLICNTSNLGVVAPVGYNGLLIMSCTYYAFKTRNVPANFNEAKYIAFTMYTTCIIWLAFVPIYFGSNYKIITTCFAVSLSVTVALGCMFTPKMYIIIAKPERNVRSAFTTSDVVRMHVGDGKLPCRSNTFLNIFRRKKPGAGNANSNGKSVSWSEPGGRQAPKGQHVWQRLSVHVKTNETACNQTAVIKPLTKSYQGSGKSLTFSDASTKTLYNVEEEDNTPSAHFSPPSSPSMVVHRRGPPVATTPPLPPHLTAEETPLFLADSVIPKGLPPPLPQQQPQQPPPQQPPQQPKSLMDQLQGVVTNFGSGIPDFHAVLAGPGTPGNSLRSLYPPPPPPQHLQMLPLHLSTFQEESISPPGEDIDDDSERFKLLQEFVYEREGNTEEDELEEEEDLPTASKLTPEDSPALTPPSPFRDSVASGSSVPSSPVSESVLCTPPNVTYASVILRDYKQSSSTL
The test system of series [18] is Rattus norvegicus. Kind of series: Reversal of haloperidol-induced catalepsy in Sprague-Dawley rat administered intraperitoneally and measured after 15 mins. Type of series: functional, organism-based. Particulars: dose 3-30 mg/kg.
Series [19] deals with Metabotropic glutamate receptor 7 (Homo sapiens, UniProt Q14831). Description: Binding affinity to mGlu7 (unknown origin).
The test system of series [20] is Rattus norvegicus. Description: Reversal of haloperidol-induced catalepsy in Sprague-Dawley rat assessed as reduction in catalepsy at 30 mg/kg, ip and measured after 15 mins relative to untreated control. Type of series: functional. Particulars: 0.25 h.
The target of series [21] is Metabotropic glutamate receptor 5 (Homo sapiens, UniProt P41594). Description: Binding affinity to mGlu5 (unknown origin).
Chain of Metabotropic glutamate receptor 5 (P41594 whole entry): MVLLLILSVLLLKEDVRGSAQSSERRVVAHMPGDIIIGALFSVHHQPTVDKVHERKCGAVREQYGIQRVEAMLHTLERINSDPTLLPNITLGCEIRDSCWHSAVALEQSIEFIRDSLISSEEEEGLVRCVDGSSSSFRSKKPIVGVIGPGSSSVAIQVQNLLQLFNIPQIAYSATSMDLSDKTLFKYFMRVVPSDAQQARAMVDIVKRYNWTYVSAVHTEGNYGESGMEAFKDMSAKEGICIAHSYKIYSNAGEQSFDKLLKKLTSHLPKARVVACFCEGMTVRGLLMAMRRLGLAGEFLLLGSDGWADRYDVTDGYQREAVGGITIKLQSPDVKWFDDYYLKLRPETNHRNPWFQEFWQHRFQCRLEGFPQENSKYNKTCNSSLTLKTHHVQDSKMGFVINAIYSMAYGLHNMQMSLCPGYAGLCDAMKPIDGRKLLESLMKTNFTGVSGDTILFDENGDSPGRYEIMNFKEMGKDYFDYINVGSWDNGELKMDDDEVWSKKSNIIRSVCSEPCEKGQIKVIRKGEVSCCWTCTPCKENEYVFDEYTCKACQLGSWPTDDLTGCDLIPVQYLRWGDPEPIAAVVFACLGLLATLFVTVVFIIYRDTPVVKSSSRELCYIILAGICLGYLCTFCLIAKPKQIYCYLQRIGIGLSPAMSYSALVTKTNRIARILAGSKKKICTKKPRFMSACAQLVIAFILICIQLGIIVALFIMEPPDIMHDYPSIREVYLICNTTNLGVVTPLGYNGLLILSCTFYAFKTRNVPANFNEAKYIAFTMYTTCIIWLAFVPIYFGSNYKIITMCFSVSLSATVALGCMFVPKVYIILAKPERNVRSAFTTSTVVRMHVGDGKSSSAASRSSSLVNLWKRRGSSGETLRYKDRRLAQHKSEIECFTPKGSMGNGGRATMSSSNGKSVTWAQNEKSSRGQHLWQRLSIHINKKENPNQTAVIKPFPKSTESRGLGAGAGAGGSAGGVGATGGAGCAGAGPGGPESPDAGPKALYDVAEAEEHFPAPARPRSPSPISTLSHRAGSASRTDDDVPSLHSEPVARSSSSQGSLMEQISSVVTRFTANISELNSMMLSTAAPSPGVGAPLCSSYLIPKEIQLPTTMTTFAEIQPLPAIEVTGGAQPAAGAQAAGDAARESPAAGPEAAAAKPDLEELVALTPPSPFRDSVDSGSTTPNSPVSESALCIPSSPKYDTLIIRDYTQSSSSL
For series [22], the system named is Rattus norvegicus. Kind of series: Reversal of haloperidol-induced catalepsy in Sprague-Dawley rat assessed as latency time for withdrawl at 3 mg/kg, ip and measured after 15 mins (reference value: 49.8 sec). Particulars: 0.25 h. Type of series: functional.
Where [23] appears, read: filed as positive allosteric modulator.

Chain of Metabotropic glutamate receptor 3 (Q14832 whole entry): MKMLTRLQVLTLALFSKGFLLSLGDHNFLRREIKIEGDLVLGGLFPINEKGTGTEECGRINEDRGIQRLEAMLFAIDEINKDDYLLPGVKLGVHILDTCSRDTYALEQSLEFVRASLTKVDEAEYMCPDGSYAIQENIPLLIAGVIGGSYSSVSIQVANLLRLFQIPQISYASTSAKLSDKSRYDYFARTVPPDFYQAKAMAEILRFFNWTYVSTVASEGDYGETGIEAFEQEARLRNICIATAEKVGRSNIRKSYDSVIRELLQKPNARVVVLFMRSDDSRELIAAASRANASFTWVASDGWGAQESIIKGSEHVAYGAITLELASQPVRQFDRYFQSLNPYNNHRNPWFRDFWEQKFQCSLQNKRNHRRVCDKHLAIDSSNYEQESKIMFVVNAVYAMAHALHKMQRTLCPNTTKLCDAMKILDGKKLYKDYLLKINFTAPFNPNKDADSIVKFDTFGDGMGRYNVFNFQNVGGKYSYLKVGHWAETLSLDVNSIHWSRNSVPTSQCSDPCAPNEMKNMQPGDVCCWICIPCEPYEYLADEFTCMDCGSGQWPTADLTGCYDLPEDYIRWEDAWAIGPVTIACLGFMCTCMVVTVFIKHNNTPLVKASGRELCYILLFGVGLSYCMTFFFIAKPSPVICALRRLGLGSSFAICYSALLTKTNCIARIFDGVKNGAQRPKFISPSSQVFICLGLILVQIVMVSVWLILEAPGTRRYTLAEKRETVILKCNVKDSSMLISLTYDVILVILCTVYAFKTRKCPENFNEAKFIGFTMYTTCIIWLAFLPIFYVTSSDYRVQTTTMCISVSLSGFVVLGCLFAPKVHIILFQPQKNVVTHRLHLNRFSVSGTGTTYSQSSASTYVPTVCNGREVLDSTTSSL

In series [1] (setting [23]), `O=C1CCSC[C@@H](C(=O)Nc2cccc(Cl)c2)N1` came in with a %max of 120%. For the same compound, the fraction unbound in series [2] was determined as 0.02; in [3], 0.01; in series [4], 0.03. This compound yielded an EC50 in series [5] of 148 nM.
On to `O=C(NC1CC(F)(F)C1)c1nsc2cc(Nc3n[nH]c4cccnc34)ccc12`, for which the solubility kinetic in [6] was 0.9 µM (≈ 0.36 µg/mL).
On to `O=C1CCSC[C@@H](C(=O)Nc2cc(F)cc(F)c2)N1`, for which the %max in [1] (setting [23]) was 102%. In [5], this compound showed an EC50 of 8900 nM.
Compound `O=C1CCSC[C@@H](C(=O)Nc2cccc(Br)c2)N1` came in with a %max in [1] (setting [23]) of 98%. This compound also had an EC50 in series [5] of 6200 nM.
For the compound `Cc1cc(C)cc(NC(=O)[C@@H]2CSCCC(=O)N2)c1`, the %max in [1] was less than 30%. For the same compound, the EC50 in [5] is more than 10000 nM.
Regarding `O=C1CCSC[C@@H](C(=O)Nc2cc(F)cc(Cl)c2)N1`, the %max in series [1] (setting [23]) worked out at 112%. The compound also showed an EC50 in series [5] of 278 nM.
Turning to `O=C1CCSC[C@@H](C(=O)Nc2cc(C(F)(F)F)cc(C(F)(F)F)c2)N1`, the %max in series [1] (setting [23]) was 102%. The same compound had an EC50 in series [5] of 950 nM.
For `O=C1CCSC[C@@H](C(=O)Nc2cc(F)cc(Br)c2)N1` the same measures were 101% and 351 nM.
With `O=C1CCSC[C@@H](C(=O)Nc2cc(Cl)cc(Cl)c2)N1`, the %max in series [1] (setting [23]) is 88%. The compound also showed an EC50 in series [5] of 273 nM.
`O=C1CCSC[C@H](C(=O)Nc2cc(Cl)cc(Br)c2)N1` registered a %max in [1] (setting [23]) of 98%. The same compound yielded an EC50 in series [5] of 64 nM.
Regarding `O=C1CCSC[C@@H](C(=O)Nc2cc(Br)cc(I)c2)N1`, in series [1] (setting [23]), the %max was found to be 101%. In addition, the concentration giving a half-maximal response (EC50) in series [5] was 115 nM.
For `O=C1CCSC[C@@H](C(=O)Nc2cc(F)cc(I)c2)N1`, the %max in series [1] (setting [23]) was 102%. The same compound displayed an EC50 in [5] of 558 nM.
For `O=C1CCSC[C@@H](C(=O)Nc2cc(Br)cc(Br)c2)N1`, the Kp uu in series [7] came to 0.1. For the same compound, the %max in series [1] (setting [23]) was 97%. For the same compound, the Kp in series [8] turned out to be 0.19. For the same compound, the fraction unbound in [2] was 0.011; in series [3] it was 0.006; in series [4] it was 0.007. The EC50 in [5] came to 35 nM.
The compound `O=C1CCSC[C@H](C(=O)Nc2cc(Br)cc(Br)c2)N1` displayed a %max in series [1] (setting [23]) of 104%. In addition, in series [5], it took 76 nM to reach a half-maximal effect (EC50).
`Cc1cc(Cl)cc(NC(=O)[C@@H]2CSCCC(=O)N2)c1` gave a %max in series [1] (setting [23]) of 87%. In addition, a half-maximal effect in [5] (EC50) was put at 1090 nM.
On to `Fc1ccc(Nc2n[nH]c3cccnc23)cc1Cl`, for which the “inhibition (INH)” value in [9] amounted to 64%. For the same compound, in series [10], the Time was 17.9 s.
On to `O=C1CCSC[C@H](C(=O)Nc2cccc(Br)c2)N1`, for which the EC50 in series [5] is more than 30000 nM.
As for `O=C1CCSC[C@@H](C(=O)Nc2cc(Cl)cc(Br)c2)N1`, the IC50 in [11], in series [13], in [17], in [19] and in series [21] was more than 10000 nM in each case. In addition, the solubility kinetic in series [6] amounted to 6.2 µM (≈ 2.25 µg/mL). In addition, the values for the Time in [12], in [14] and in [22] were 22.2 s, 28.6 s and 36.6 s, respectively. Also, the Kp uu in [7] was determined as 0.7. The same compound displayed a %max in series [1] (setting [23]) of 108%. The Kp in series [8] was found to be 0.45. Also, the values for the fraction unbound in series [2], in series [3] and in series [4] were 0.018, 0.028 and 0.011, respectively. The inhibition in vivo at 10 mg/kg in series [15] worked out at 42.6%. Further, the inhibition in vivo at 3 mg/kg in [16] is 26.5%. In addition, the Activity result in series [18] is “Dose-dependent effect”. In addition, the concentration for a half-maximal effect (EC50) in series [5] came out at 33 nM. Further, the inhibition in vivo at 30 mg/kg in [20] is 55.4%.
